Experimental data from patent US12558343B2, “Medical use of icaritin” (Lunan Pharmaceutical Group Corporation, priority 2020, dated 2026).
Read-outs that look alike come from different tables or passages of the source. Marks after values point to notes of the source that are not given here.

What was measured:
[1] = system: platelet aggregation induced by adenosine diphosphate; assay: In-vitro platelet aggregation in platelet-rich plasma induced by adenosine diphosphate; assay type: cell-based, domestic rabbits; details: rabbit PRP, ADP 25 μmol/L, vs 1% dimethyl sulfoxide control
Procedure: After domestic rabbits were locally anesthetized with procaine, common carotid artery was surgically separated, blood was collected and anticoagulated with 3.8% sodium citrate, the anticoagulated blood was centrifuged at 800 r/min for 10 min to prepare platelet-rich plasma (PRP), the remaining part was centrifuged at […] for 10 min to prepare platelet-poor plasma (PPP), and a platelet aggregation experiment was performed. 265 μL of PRP and 30 μL of icaritin were added to a test tube (to enable final concentrations of the icaritin to be 0.1 mmol/L, 0.5 mmol/L, and 5 mmol/L separately), incubation was performed for 5 min, 5 μL of adenosine diphosphate (at a final concentration of 25 μmol/L) was added as an inducer, and a maximum aggregation rate within 5 min was observed and recorded. 1% by mass of dimethyl sulfoxide was used as a control and a promoting effect of the icaritin of each concentration on platelet aggregation induced by adenosine diphosphate was observed.

[2] = system: hemorrhagic transformation model induced by clopidogrel combined with cerebral ischemia-reperfusion; assay: Hemorrhagic transformation after cerebral ischemia-reperfusion (MCAO) caused by clopidogrel, bleeding rate; assay type: in vivo, ICR mice; details: for Number of animals with cerebral hemorrhage: 24 h after MCAO; for Bleeding rate %: model group 80.0
Procedure: 5-week-old ICR male mice were fed to 6-week-old and divided into a control group, a model group, an icaritin-3 mg/kg group, an icaritin-6 mg/kg group, an icaritin-12 mg/kg group, and an icariin-12 mg/kg group according to body weight. From day 1 to day 3 after the grouping, the mice in each icaritin group were separately intragastrically administrated with 3, 6, and 12 mg/kg of icaritin and the mice in the icariin group was intragastrically administrated with 12 mg/kg of icariin once a day, and the mice in other groups were intragastrically administrated with a corresponding vehicle; and except the control group, the mice in other groups were intragastrically administrated with aspirin (100 mg/kg) or clopidogrel (15 mg/kg) once a day at a volume of 10 mL/kg.
On day 3, 10 min after the administration, the mice were anesthetized by intraperitoneal injection of 70 mg/kg of pentobarbital sodium and subjected to a cerebral ischemia-reperfusion (middle cerebral artery occlusion, MCAO) surgery with ischemia for 1 h and reperfusion for 23 h.
24 h after the surgery was an end point of the experiment.
Bleeding rate: the mice were anesthetized by intraperitoneal injection of 70 mg/kg of pentobarbital sodium, a brain tissue was taken out, cerebral hemorrhage was recorded and a bleeding rate of the mice in each group was calculated. Cerebral hemorrhage rate %=number of animals with cerebral hemorrhage/number of surviving animals in each group×100.

[3] = system: prolonged bleeding time caused by heparin sodium; assay: Tail-cut bleeding time in mice, prolonged by heparin sodium; assay type: in vivo, ICR mice; details: heparin sodium 150 U/kg i.v.
From the text: 72 ICR mice aged 5-6 weeks, weighing 19-21 g, and half male and half female were selected. The mice were quarantined for 7 days after entering a laboratory and healthy mice were selected as test animals. The mice were weighed on first and last days of quarantine. According to the body weight on the last day of the quarantine, the male and female animals were divided into six groups by a simplified random method, namely, a normal group (C), a model group (V), low-, medium- and high-dose icaritin groups (2, 6, and 18 mg/kg, L, M, H) and a positive control drug group (200 mg/kg of etamsylate, P).
(§1) After 15 min of the modeling, the tails of the mice were cut and bleeding time of each mouse was measured.

[4] = system: prolonged bleeding time caused by aspirin; assay: Tail-cut bleeding time in mice, prolonged by aspirin; assay type: in vivo, ICR mice; details: aspirin 20 mg/kg i.g.
Procedure: According to the body weight on the last day of the quarantine, the male and female animals were divided into six groups by a simplified random method, namely, a normal group (C), a model group (V), icaritin low-, medium- and high-dose groups (2, 6, and 18 mg/kg, L, M, H) and a positive control drug group (200 mg/kg of etamsylate, P).
as §1

[5] = system: gastrointestinal bleeding caused by aspirin; assay: Gastrointestinal bleeding caused by aspirin in rats, gastric mucosal bleeding; assay type: in vivo, SD rats; details: icaritin 18 mg/kg i.g. with aspirin 500 mg/kg i.g., 24 h
Procedure: After 24 h of the intragastric administration, the rats were anesthetized, sacrificed, and dissected. Bleeding, erosion and ulcers of the gastric mucosa surface of the rats were observed.

[6] = system: IX-knockout mice with hemophilia; assay: Tail-cut bleeding time of coagulation factor IX-knockout mice with hemophilia; assay type: in vivo
Procedure: One hour after the last administration, the tails of the mice were cut and bleeding time of each mouse was measured.

[7] = mouse, in vivo
Procedure: (§2) After the grouping, the mice in the normal group and the model group were intragastrically administrated with 10 ml/kg of an icaritin solvent which was prepared by adding 12 g of hypromellose E5 and 0.1 g of sodium lauryl sulfate into 1 L of water. […] One hour after the last pre-administration, the mice in the model group and each administration group were injected with 150 U/kg of a heparin sodium injection through a tail vein to establish a model, and the mice in the normal group were injected with 10 ml/kg of a sodium chloride injection through a tail vein.
(§3) After the bleeding time was detected, the mice were anesthetized with sodium pentobarbital, blood was collected from an abdominal cardinal vein, and indicators of blood routine examination and four coagulation indicators (prothrombin time, thromboplastin time, thrombin time, and fibrinogen) were detected.

[8] = mouse, in vivo; remark: listed apart in the source
Procedure: as §2, §3

[9] = group H, 18 mg/kg i.g. once a day 5 days
[10] = group L, 2 mg/kg i.g. once a day 5 days, tail cut 15 min after modeling
[11] = group M, 6 mg/kg i.g. once a day 5 days

- Number of erythrocytes ([7]; 2 mg/kg): 7.109 ± 0.656 10^12/L
- Number of leukocytes ([7]; 2 mg/kg): 1.895 ± 0.207 10^9/L
- Number of platelets ([7]; 2 mg/kg): 1046 ± 136 10^9/L
- Number of erythrocytes ([7]; 6 mg/kg): 7.111 ± 0.634 10^12/L
- Number of leukocytes ([7]; 6 mg/kg): 1.934 ± 0.199 10^9/L
- Number of platelets ([7]; 6 mg/kg): 1110 ± 128 10^9/L
- Number of erythrocytes ([7]; 18 mg/kg): 7.090 ± 0.761 10^12/L
- Number of leukocytes ([7]; 18 mg/kg): 1.888 ± 0.223 10^9/L
- Number of platelets ([7]; 18 mg/kg): 1059 ± 170 10^9/L
- Fibrinogen ([8]; 2 mg/kg): 1.83 ± 0.22 g/L
- Prothrombin time ([8]; 2 mg/kg): 10.12 ± 1.34 s
- Thrombin time ([8]; 2 mg/kg): 22.23 ± 2.01 s
- Thromboplastin time ([8]; 2 mg/kg): 25.19 ± 1.90 s
- Fibrinogen ([8]; 6 mg/kg): 1.82 ± 0.56 g/L
- Prothrombin time ([8]; 6 mg/kg): 11.23 ± 1.45 s
- Thrombin time ([8]; 6 mg/kg): 24.09 ± 1.99 s
- Thromboplastin time ([8]; 6 mg/kg): 25.09 ± 2.22 s
- Fibrinogen ([8]; 18 mg/kg): 2.01 ± 0.52 g/L
- Prothrombin time ([8]; 18 mg/kg): 9.98 ± 1.23 s
- Thrombin time ([8]; 18 mg/kg): 25.54 ± 1.78 s
- Thromboplastin time ([8]; 18 mg/kg): 24.55 ± 2.66 s
Structure (SMILES): COc1ccc(-c2oc3c(CC=C(C)C)c(O)cc(O)c3c(=O)c2O)cc1 [Icaritin]
- Aggregation-promoting rate ([1]; 0.1 mmol/L): 23.3 ± 4.5%
- Aggregation-promoting rate ([1]; 0.5 mmol/L): 38.9 ± 8.7%
- Aggregation-promoting rate ([1]; 5 mmol/L): 52.2 ± 9.0%
- Number of animals with cerebral hemorrhage ([2]; 3 mg/kg i.g. Day 1-3 with clopidogrel 15 mg/kg, of 7 animals): 3
- Bleeding rate % ([2]; 3 mg/kg i.g. Day 1-3 with clopidogrel 15 mg/kg): 42.9%
- Number of animals with cerebral hemorrhage ([2]; 6 mg/kg i.g. Day 1-3 with clopidogrel 15 mg/kg, of 8 animals): 2
- Bleeding rate % ([2]; 6 mg/kg i.g. Day 1-3 with clopidogrel 15 mg/kg): 25.0%
- Number of animals with cerebral hemorrhage ([2]; 12 mg/kg i.g. Day 1-3 with clopidogrel 15 mg/kg, of 8 (icaritin) or 7 (icariin) animals): 2
- Bleeding rate % ([2]; 12 mg/kg i.g. Day 1-3 with clopidogrel 15 mg/kg): 25.0%
- Bleeding time [3, 9]: 15.9 ± 6.6^$ $ & min
- Bleeding time [3, 10]: 26.4 ± 8.8^$ min
- Bleeding time [3, 11]: 22.7 ± 9.1^$ min
- Bleeding time [4, 9]: 16.7 ± 7.2^$ $ & min
- Bleeding time [4, 10]: 28.4 ± 9.8^$ min
- Bleeding time [4, 11]: 24.7 ± 7.3^$ min
- Bleeding rate ([5]; model group 66.7): 16.7^## %
- Number of bleeding animals ([5]; of 12 rats): 2
- Bleeding time ([6]; group B, 3 mg/kg i.g. once a day 11 days, 1 h after last administration, control 37.8 ± 12.4): 25.5 ± 8.9 min
- Bleeding time ([6]; group C, 6 mg/kg i.g. once a day 11 days): 20.4 ± 6.9 min
- Bleeding time ([6]; group D, 18 mg/kg i.g. once a day 11 days): 16.5 ± 9.7 min
